Experimental data reported in patent US20030220232A1, “Peptide and nucleic acid coding therefor for the detection, diagnosis and therapy of diseases of the nervous system” (priority 2000, published 2003).

What was measured:
[1] = tested on: sodium ion channels; experiment: Neuroinhibitory assay: inhibition of sodium currents, whole cell mode, differentiated NH15-CA2 neuroblastoma-x-glioma cells; assay type: cell-based; conditions: for concentration of solution with corresponding electrophysiological action on neuronal sodium channels: 10 μM peptide solution corresponds to 50 μM lidocaine solution
Text: “Neuroinhibitory activity” here means the capacity of a substance for blocking sodium ion channels. Neuroinhibitory activity can be measured in this connection by the inhibition of sodium ion currents through potential-dependent sodium ion channels. (Review article by Lehmann-Horn et al. in Rev. Physiol. Biochem. Pharmacol. 128; (1996), 198-268). The experimental conditions for measurement of the neuroinhibitory activity are described, for example, in Brinkmeier et al., Muscle and Nerve 19 (1996), 54-62. Neuroinhibitory activity can be determined using differentiated NH15-CA2 [neuroblastoma×glioma] cells (Hamprecht et al., Meth. Enzymol. 109 (1985), 316-41; Brinkmeier et al., Muscle Nerve 19 (1996), 54-62).
The neuroinhibitory activity was determined by the inhibition of sodium ion channels using differentiated NH15-CA2 neuroblastoma-x-glioma cells. The culture conditions and morphological and physiological parameters of the differentiation of these cells are known (Hamprecht et al., Meth. Enzymol. 109 (1985), 316-41). For the assay, the cells were transferred into a hydrophobic test dish which was filled with standard external liquid (140 mM NaCl; 3.5 mM KCl; 1.0 mM CaCl2; 1.0 mM MgCl2; 2 mM HEPES, pH 7.4). The dish was on the platen of an inverted microscope for observation of the cells, while these were treated with pipettes which were filled with internal solution (140 mM CsCl; 1.4 mM MgCl2; 10 mM EGTA and 10 mM HEPES (peak resistances: […])). The sodium currents were induced and recorded in the whole cell mode. The determination of the maximum current amplitudes as a response to repetitive rectangular pulses from −85 to −20 mV lasting 8 ms before, during and after administration of the test solution can be used as a rapid test for the neuroinhibitory activity. The decrease in the current was recorded in three to five cells and the means were determined. An extended test consisted of determination of the “steady-state” activation and inactivation parameters of sodium ion channels. To determine the dependence of the activation on potential, a cyclic pulse program was used, which comprised pre-pulses which depolarized the cells from an HP (holding potential) of −85 mV to −135 mV over 100 ms, and subsequent variable test pulses which depolarized for 8 ms in 4 mV steps from −65 to +31 mV. For the dependence of the inactivation on potential, a similar program was used, which comprised a fixed 100 ms conditioning pulse at −135 mV, a variable 32 ms prepulse in the course of −135 to −19 mV in 4 mV steps and a constant test pulse which depolarized the cells to −20 mV. The size of the left shift of the h curve in the presence of test solutions was used as a measured of the inhibition of the sodium ion channels.
The neuroinhibitory activity of the synthetic peptide with the sequence (SEQ ID NO:1) was determined by the inhibition of the sodium currents by ion channels which were induced by 1 Hz rectangular pulses from […]. […] In each case the mean with the standard deviation is shown.

[2] = biological target: sodium ion channels of differentiated NH15-CA2 neuroblastoma-x-glioma cells; experiment: cell-based or functional assay

CCN(CC)CC(=O)Nc1c(C)cccc1C [lidocaine, reference compound]
concentration of solution with corresponding electrophysiological action on neuronal sodium channels [1]: 50 μM

Gln-Tyr-Asn-Ala-Asp (QYNAD) [SEQ ID NO:1]
concentration at saturation of the neuroinhibitory effect [1]: 100 µM | neuroinhibitory activity compared with lidocaine [1]: significantly higher | neuroinhibitory activity in respect of sodium ion channels (in words) [1]: blocks their sodium currents | concentration of solution with corresponding electrophysiological action on neuronal sodium channels [1]: 10 μM | peptide-mediated blocking of the ion channel (time course) ([1]; NH15-CA2 cells): rapid and reversible | IC50 ([1]; NH15-CA2 cells, currents induced by 1 Hz rectangular pulses, seven measurements, read-out: peptide concentration giving half-maximum inhibition of the sodium ion currents): < 10 µM

Gln-Tyr-Asn-Asp-Ala (QYNDA) [SEQ ID NO:2]
neuroinhibitory activity in respect of sodium ion channels (in words) [1]: does not have a neuroinhibitory activity

synthetic peptide Gln-Tyr-Asn-Ala-Asp (SEQ ID NO: 1)
half-maximum inhibition of the sodium ion currents [2]: < 10 µM | saturation of the peptide effect [2]: 100 µM
